The results in this text go back to patent publication US9409866B2, “Pyridine-2-amides useful as CB2 agonists” (Hoffmann-La Roche Inc., priority 2012, dated 2016).

Where two headings read alike, the source gives them in different places.

One experiment has as its target human CB2 receptors (Homo sapiens (Human), UniProt P34972). Description: functional cAMP assay, CHO cells expressing human CB2. In kind it is cell-based. The method, then: (§1) CHO cells expressing human CB1 or CB2 receptors are seeded 17-24 hours prior to the experiment 50.000 cells per well in a black 96 well plate with flat clear bottom (Corning Costar #3904) in DMEM (Invitrogen No. 31331), 1×HT supplement, with 10% fetal calf serum and incubated at 5% CO2 and 37° C. in a humidified incubator. The growth medium was exchanged with Krebs Ringer Bicarbonate buffer with 1 mM IBMX and incubated at 30° C. for 30 min. Compounds were added to a final assay volume of 100 μl and incubated for 30 min at 30° C. Using the cAMP-Nano-TRF detection kit the assay (Roche Diagnostics) was stopped by the addition of 50 μl lysis reagent (Tris, NaCl, 1.5% Triton X100, 2.5% NP40, 10% NaN3) and 50 μl detection solutions (20 μM mAb Alexa700-cAMP 1:1, and 48 μM Ruthenium-2-AHA-cAMP) and shaken for 2 h at room temperature. The time-resolved energy transfer is measured by a TRF reader (Evotec Technologies GmbH), equipped with a ND:YAG laser as excitation source. The plate is measured twice with the excitation at 355 nm and at the emission with a delay of 100 ns and a gate of 100 ns, total exposure time 10 s at 730 (bandwidth 30 nm) or 645 nm (bandwidth 75 nm), respectively. The FRET signal is calculated as follows: FRET=T730-Alexa730-P(T645-B645) with P=Ru730-B730/Ru645-B645, where T730 is the test well measured at 730 nM, T645 is the test well measured at 645 nm, B730 and B645 are the buffer controls at 730 nm and 645 nm, respectively. cAMP content is determined from the function of a standard curve spanning from 10 μM to 0.13 nM cAMP.
(§2) EC50 values were determined using Activity Base analysis (ID Business Solution, Limited). The EC50 values for a wide range of cannabinoid agonists generated from this assay were in agreement with the values published in the scientific literature.

In the next experiment the target is human CB1 receptors (Homo sapiens (Human), UniProt P21554). Description: functional cAMP assay, CHO cells expressing human CB1. In kind it is cell-based. The method, then:
as §1, §2
(In general: cAMP levels reflect the balance of adenylyl cyclase and phosphodiesterase activity.)

[1] abbreviates: Human CB1 EC50 (uM), functional cAMP assay, CHO cells expressing human CB1.
The mark [2] stands for this setting: read-out: Human CB1 EC50, functional cAMP assay, CHO cells expressing human CB1.

human CB2 receptors, sequence (P34972 whole entry): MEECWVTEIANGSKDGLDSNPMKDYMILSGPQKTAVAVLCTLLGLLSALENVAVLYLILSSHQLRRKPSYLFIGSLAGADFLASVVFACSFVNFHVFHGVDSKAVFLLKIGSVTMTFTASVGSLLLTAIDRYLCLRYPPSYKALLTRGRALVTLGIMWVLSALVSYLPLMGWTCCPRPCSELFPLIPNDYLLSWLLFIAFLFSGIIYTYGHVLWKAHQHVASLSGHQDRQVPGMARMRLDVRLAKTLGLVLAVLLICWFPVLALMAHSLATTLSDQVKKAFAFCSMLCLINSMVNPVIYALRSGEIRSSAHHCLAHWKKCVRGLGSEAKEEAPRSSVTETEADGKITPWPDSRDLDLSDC
human CB1 receptors, sequence (P21554 whole entry): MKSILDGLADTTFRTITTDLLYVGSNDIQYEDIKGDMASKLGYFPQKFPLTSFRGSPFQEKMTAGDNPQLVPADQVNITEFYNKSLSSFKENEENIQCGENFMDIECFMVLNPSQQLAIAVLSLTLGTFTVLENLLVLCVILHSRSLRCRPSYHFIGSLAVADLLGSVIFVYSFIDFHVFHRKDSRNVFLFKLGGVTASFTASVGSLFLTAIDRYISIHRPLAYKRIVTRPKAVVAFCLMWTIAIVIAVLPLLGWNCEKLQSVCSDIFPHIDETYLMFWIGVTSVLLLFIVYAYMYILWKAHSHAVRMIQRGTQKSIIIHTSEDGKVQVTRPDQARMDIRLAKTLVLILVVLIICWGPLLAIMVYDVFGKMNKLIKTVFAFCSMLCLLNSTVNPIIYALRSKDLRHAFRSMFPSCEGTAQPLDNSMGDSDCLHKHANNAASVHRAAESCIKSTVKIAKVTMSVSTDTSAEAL

Usually EC50 stands for the concentration needed to bring the measured effect to its halfway point. In the case of `Cc1nc([C@@](C)(NC(=O)c2cc(OCC(F)(F)F)c(N3CC(F)(F)C3)cn2)C2CC2)no1` (single isomer, unassigned) [Example 88, 5-(3,3-Difluoro-azetidin-1-yl)-4-(2,2,2-trifluoro-ethoxy)-pyridine-2-carboxylic acid [1-cyclopropyl-1-(5-methyl-[1,2,4]oxadiazol-3-yl)-ethyl]-amide], the half-maximal effective concentration (EC50) at human CB2 receptors (Human CB2 EC50 (uM)) was 0.0105 µM; on human CB1 receptors (setting [1]) it was 1.79 µM.

As for `Cc1nc([C@@](C)(CC2CC2)NC(=O)c2cc(OCC(F)(F)F)c(N3CC(F)(F)C3)cn2)no1` (single isomer, unassigned) [Example 91, 5-(3,3-Difluoro-azetidin-1-yl)-4-(2,2,2-trifluoro-ethoxy)-pyridine-2-carboxylic acid [2-cyclopropyl-1-methyl-1-(5-methyl-[1,2,4]oxadiazol-3-yl)-ethyl]-amide], the EC50 at human CB2 receptors (Human CB2 EC50 (uM)) is 0.0303 µM; at human CB1 receptors (setting [1]), above 10 µM.

`Cc1nc([C@](C)(CC2CC2)NC(=O)c2cc(OCC(F)(F)F)c(N3CC(F)(F)C3)cn2)no1` (single isomer, unassigned) [Example 92, 5-(3,3-Difluoro-azetidin-1-yl)-4-(2,2,2-trifluoro-ethoxy)-pyridine-2-carboxylic acid [2-cyclopropyl-1-methyl-1-(5-methyl-[1,2,4]oxadiazol-3-yl)-ethyl]-amide]: the EC50 is 0.0214 µM on human CB2 receptors (Human CB2 EC50 (uM)) and above 10 µM on human CB1 receptors (setting [1]).

Turning to `Cc1nc([C@@](C)(CC2CC2)NC(=O)c2cc(OCC(F)(F)F)c(Cl)cn2)no1` (single isomer, unassigned) [Example 93, 5-Chloro-4-(2,2,2-trifluoro-ethoxy)-pyridine-2-carboxylic acid [2-cyclopropyl-1-methyl-1-(5-methyl-[1,2,4]oxadiazol-3-yl)-ethyl]-amide], the EC50 on human CB2 receptors (Human CB2 EC50 (uM)) is 0.0651 µM; at human CB1 receptors (setting [1]), above 10 µM.

`Cc1nc([C@](C)(CC2CC2)NC(=O)c2cc(OCC(F)(F)F)c(Cl)cn2)no1` (single isomer, unassigned) [Example 94, 5-Chloro-4-(2,2,2-trifluoro-ethoxy)-pyridine-2-carboxylic acid [2-cyclopropyl-1-methyl-1-(5-methyl-[1,2,4]oxadiazol-3-yl)-ethyl]-amide]: the concentration for a half-maximal effect (EC50) on human CB2 receptors (Human CB2 EC50 (uM)) is 0.0747 µM; at human CB1 receptors (setting [1]) it was above 10 µM.

Turning to `Cc1nc([C@@](C)(CS(C)(=O)=O)NC(=O)c2cc(OCC(F)(F)F)c(C3CC3)cn2)no1` (single isomer, unassigned) [Example 98, 5-Cyclopropyl-4-(2,2,2-trifluoro-ethoxy)-pyridine-2-carboxylic acid [2-methanesulfonyl-1-methyl-1-(5-methyl-[1,2,4]oxadiazol-3-yl)-ethyl]-amide], the concentration for a half-maximal effect (EC50) at human CB2 receptors (Human CB2 EC50 (uM)) was 0.0706 µM; on human CB1 receptors (setting [1]), above 10 µM.

Turning to `Cc1nc([C@](C)(CS(C)(=O)=O)NC(=O)c2cc(OCC(F)(F)F)c(C3CC3)cn2)no1` (single isomer, unassigned) [Example 99, 5-Cyclopropyl-4-(2,2,2-trifluoro-ethoxy)-pyridine-2-carboxylic acid [2-methanesulfonyl-1-methyl-1-(5-methyl-[1,2,4]oxadiazol-3-yl)-ethyl]-amide], the EC50 on human CB2 receptors (Human CB2 EC50 (uM)) is 0.104 µM; on human CB1 receptors (setting [1]), above 10 µM.

On to `Cc1nc([C@@](C)(CC(C)(C)C)NC(=O)c2cc(OCC(F)(F)F)c(C3CC3)cn2)no1` (single isomer, unassigned) [Example 104, 5-Cyclopropyl-4-(2,2,2-trifluoro-ethoxy)-pyridine-2-carboxylic acid [1,3,3-trimethyl-1-(5-methyl-[1,2,4]oxadiazol-3-yl)-butyl]-amide], for which the concentration for a half-maximal effect (EC50) on human CB2 receptors (Human CB2 EC50 (uM)) was 0.0298 µM; on human CB1 receptors (setting [1]), above 10 µM.

`Cc1nc([C@](C)(CC(C)(C)C)NC(=O)c2cc(OCC(F)(F)F)c(C3CC3)cn2)no1` (single isomer, unassigned) [Example 105, 5-Cyclopropyl-4-(2,2,2-trifluoro-ethoxy)-pyridine-2-carboxylic acid [1,3,3-trimethyl-1-(5-methyl-[1,2,4]oxadiazol-3-yl)-butyl]-amide]: the figures for the EC50 on human CB2 receptors (Human CB2 EC50 (uM)) and at human CB1 receptors (setting [1]) were 0.0023 µM and 0.33 µM, respectively.

Turning to `Cc1nc(C(C)(CC2CC2)NC(=O)c2cc(OCC(F)(F)F)c(C3CCC3)cn2)no1` (single isomer, unassigned) [Example 116, 5-cyclobutyl-N-[1-cyclopropyl-2-(5-methyl-1,2,4-oxadiazol-3-yl)propan-2-yl]-4-(2,2,2-trifluoroethoxy)pyridine-2-carboxamide], the 50% effective concentration (EC50) at human CB2 receptors (Human CB2 EC50 (uM)) is 0.0041 µM; on human CB1 receptors (setting [1]), above 10 µM.

Take `Cc1nc(C(C)(CC2CC2)NC(=O)c2cc(OCC(F)(F)F)c(C3CCC3)cn2)no1` (single isomer, unassigned) [Example 117, 5-cyclobutyl-N-[1-cyclopropyl-2-(5-methyl-1,2,4-oxadiazol-3-yl)propan-2-yl]-4-(2,2,2-trifluoroethoxy)pyridine-2-carboxamide]: the EC50 on human CB2 receptors (Human CB2 EC50 (uM)) is 0.0024 µM; at human CB1 receptors (setting [2]) it was above 10 µM.

`Cc1nc(C(C)(CS(C)(=O)=O)NC(=O)c2cc(OCC(F)(F)F)c(C3CCC3)cn2)no1` (single isomer, unassigned) [Example 124, 5-cyclobutyl-N-[1-methyl-1-(5-methyl-1,2,4-oxadiazol-3-yl)-2-methylsulfonyl-ethyl]-4-(2,2,2-trifluoroethoxy)pyridine-2-carboxamide]: the EC50 at human CB2 receptors (Human CB2 EC50 (uM)) is 0.0159 µM; at human CB1 receptors (setting [1]), above 10 µM.

Consider `Cc1nc(C(C)(CS(C)(=O)=O)NC(=O)c2cc(OCC(F)(F)F)c(C3CCC3)cn2)no1` (single isomer, unassigned) [Example 125, 5-cyclobutyl-N-[1-methyl-1-(5-methyl-1,2,4-oxadiazol-3-yl)-2-methylsulfonyl-ethyl]-4-(2,2,2-trifluoroethoxy)pyridine-2-carboxamide], for which the figures for the EC50 on human CB2 receptors (Human CB2 EC50 (uM)) and at human CB1 receptors (setting [2]) were 0.011 µM and above 10 µM, respectively.

On to `Cc1nc(C(C)(CS(C)(=O)=O)NC(=O)c2cc(OCC(F)(F)F)c(C3(F)COC3)cn2)no1` (single isomer, unassigned) [Example 132, 5-(3-fluorooxetan-3-yl)-N-[2-(5-methyl-1,2,4-oxadiazol-3-yl)-1-methylsulfonylpropan-2-yl]-4-(2,2,2-trifluoroethoxy)pyridine-2-carboxamide], for which the EC50 at human CB2 receptors (read-out: Human CB2 EC50) is 0.333 µM; on human CB1 receptors it was above 10 µM.

Take `Cc1nc(C(C)(CS(C)(=O)=O)NC(=O)c2cc(OCC(F)(F)F)c(C3(F)COC3)cn2)no1` (single isomer, unassigned) [Example 133, 5-(3-fluorooxetan-3-yl)-N-[2-(5-methyl-1,2,4-oxadiazol-3-yl)-1-methylsulfonylpropan-2-yl]-4-(2,2,2-trifluoroethoxy)pyridine-2-carboxamide]: the EC50 is 0.568 µM on human CB2 receptors (read-out: Human CB2 EC50) and above 10 µM at human CB1 receptors (setting [2]).

As for `Cc1nc(C(C)(CC2CC2)NC(=O)c2cc(OCC(F)(F)F)c(C3(F)COC3)cn2)no1` (single isomer, unassigned) [Example 135, N-[1-cyclopropyl-2-(5-methyl-1,2,4-oxadiazol-3-yl)propan-2-yl]-5-(3-fluorooxetan-3-yl)-4-(2,2,2-trifluoroethoxy)pyridine-2-carboxamide], the EC50 on human CB2 receptors (Human CB2 EC50 (uM)) is 0.144 µM; at human CB1 receptors (setting [1]) it was above 10 µM.

Turning to `Cc1nc(C(C)(CC2CC2)NC(=O)c2cc(OCC(F)(F)F)c(C3(F)COC3)cn2)no1` (single isomer, unassigned) [Example 136, N-[1-cyclopropyl-2-(5-methyl-1,2,4-oxadiazol-3-yl)propan-2-yl]-5-(3-fluorooxetan-3-yl)-4-(2,2,2-trifluoroethoxy)pyridine-2-carboxamide], the figures for the EC50 on human CB2 receptors (Human CB2 EC50 (uM)) and at human CB1 receptors (setting [2]) were 0.125 µM and above 10 µM, respectively.

Turning to `Cc1nc(C(C)(CO)NC(=O)c2cc(OCC(F)(F)F)c(C3CC3)cn2)no1` (single isomer, unassigned) [Example 140, 5-cyclopropyl-N-[1-hydroxy-2-(5-methyl-1,2,4-oxadiazol-3-yl)propan-2-yl]-4-(2,2,2-trifluoroethoxy)pyridine-2-carboxamide], the EC50 at human CB2 receptors (Human CB2 EC50 (uM)) is 0.511 µM; on human CB1 receptors (setting [1]), above 10 µM.

Turning to `Cc1nc(C(C)(CO)NC(=O)c2cc(OCC(F)(F)F)c(C3CC3)cn2)no1` (single isomer, unassigned) [Example 141, 5-cyclopropyl-N-[1-hydroxy-2-(5-methyl-1,2,4-oxadiazol-3-yl)propan-2-yl]-4-(2,2,2-trifluoroethoxy)pyridine-2-carboxamide], the half-maximal effective concentration (EC50) on human CB2 receptors (Human CB2 EC50 (uM)) is 0.0968 µM; on human CB1 receptors (setting [2]) it was above 10 µM.

Regarding `Cn1nnnc1C(NC(=O)c1cc(OCC(F)(F)F)c(C2CC2)cn1)C(C)(C)C` (stereo not drawn) [Example 164, 5-cyclopropyl-N-[2,2-dimethyl-1-(1-methyltetrazol-5-yl)propyl]-4-(2,2,2-trifluoroethoxy)pyridine-2-carboxamide], the EC50 at human CB2 receptors (Human CB2 EC50 (uM)) stood at 0.0168 µM.
